Data: PubChem BioAssay AID330 (DTP/NCI, 2004)
Where “and” joins values, the source holds several entries; their conditions need not be identical. Identical values can stand only once. Toxic doses and inconclusive results are not listed. The calls were made as follows: active = survival T/C of 150% or more; inactive = T/C below 125% in these data. Square brackets hold non-standard residues; d marks the D form. Peptide text beside a SMILES is read from it. * marks the point of attachment. Cbz = O=C(OCc1ccccc1)*; Nva = CCC[CH](N)C(=O)O

Test system: P388 leukemia ip, CD2F1 mice, survival T/C
Experiment: NCI In Vivo Anticancer Drug Screen. Data for tumor model P388 Leukemia (intraperitoneal) in CD2F1 (CDF1) mice
Conditions: endpoint: median survival time, higher = longer survival
Method in brief: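 Mice carrying the transplanted tumor received test compound or vehicle. Survival was recorded in each group, and the value is the treated-group measurement divided by that of the vehicle-treated control group.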

[1] = dose: 60.0 mg/kg/injection, schedule: Q01DX005 (ip), vehicle: saline with Tween-80
[2] = dose: 120.0 mg/kg/injection, schedule: Q01DX005 (ip), vehicle: saline with Tween-80
[3] = dose: 50.0 mg/kg/injection, schedule: Q01DX009 (ip), vehicle: saline with Tween-80
[4] = dose: 50.0 mg/kg/injection, schedule: Q01DX009 (ip), vehicle: saline
[5] = dose: 100.0 mg/kg/injection, schedule: Q01DX009 (ip), vehicle: saline
[6] = dose: 200.0 mg/kg/injection, schedule: Q01DX009 (ip), vehicle: saline
[7] = dose: 25.0 mg/kg/injection, schedule: Q01DX009 (ip), vehicle: saline with Tween-80

Measured: T/C

O=C1CC[C@@H](NC(=O)Cc2ccccc2)C(=O)N1
inactive: dose: 7.5 mg/kg/injection, schedule: Q01DX005 (ip), vehicle: saline with Tween-80 103 % of control | dose: 15.0 mg/kg/injection, schedule: Q01DX005 (ip), vehicle: saline with Tween-80 97 % of control | dose: 30.0 mg/kg/injection, schedule: Q01DX005 (ip), vehicle: saline with Tween-80 98 % of control and 101 % of control | dose: 31.25 mg/kg/injection, schedule: Q01DX005 (ip), vehicle: saline with Tween-80 102 % of control | [1] 94 % of control and 96 % of control | dose: 62.5 mg/kg/injection, schedule: Q01DX005 (ip), vehicle: saline with Tween-80 101 % of control | [2] 88 % of control | dose: 125.0 mg/kg/injection, schedule: Q01DX005 (ip), vehicle: saline with Tween-80 99 % of control and 93 % of control | dose: 250.0 mg/kg/injection, schedule: Q01DX005 (ip), vehicle: saline with Tween-80 90 % of control | dose: 500.0 mg/kg/injection, schedule: Q01DX005 (ip), vehicle: saline with Tween-80 89 % of control

O=C1CCCCC(=O)CS(=O)(=O)C1
inactive: [3] 110 % of control | dose: 100.0 mg/kg/injection, schedule: Q01DX009 (ip), vehicle: saline with Tween-80 107 % of control | dose: 200.0 mg/kg/injection, schedule: Q01DX009 (ip), vehicle: saline with Tween-80 103 % of control

CC1=C(C)CC2C(=O)c3c(c(O)c4ccccc4c3Cl)C(=O)C2C1 (stereo not drawn)
inactive: dose: 50.0 mg/kg/injection, schedule: Q01DX001 (ip), vehicle: Klucel (hydroxypropylcellulose) (HPC) 90 % of control | dose: 100.0 mg/kg/injection, schedule: Q01DX001 (ip), vehicle: Klucel (hydroxypropylcellulose) (HPC) 89 % of control | dose: 200.0 mg/kg/injection, schedule: Q01DX001 (ip), vehicle: Klucel (hydroxypropylcellulose) (HPC) 86 % of control and 90 % of control | dose: 400.0 mg/kg/injection, schedule: Q01DX001 (ip), vehicle: Klucel (hydroxypropylcellulose) (HPC) 92 % of control

CCOC(=O)c1nc(C(Br)(Br)Br)[nH]c(=O)c1C
inactive: dose: 6.25 mg/kg/injection, schedule: Q01DX009 (ip), vehicle: distilled water + Tween-80 102 % of control | dose: 12.5 mg/kg/injection, schedule: Q01DX009 (ip), vehicle: distilled water + Tween-80 113 % of control | dose: 25.0 mg/kg/injection, schedule: Q01DX009 (ip), vehicle: distilled water + Tween-80 116 % of control | dose: 50.0 mg/kg/injection, schedule: Q01DX009 (ip), vehicle: distilled water + Tween-80 113 % of control | dose: 100.0 mg/kg/injection, schedule: Q01DX009 (ip), vehicle: distilled water + Tween-80 113 % of control

CCCC(NC(=O)OCc1ccccc1)C(=O)NC(Cc1ccccc1)C(N)=O (stereo not drawn) (Cbz-[Nva]-Phe-NH2; configuration not given here)
inactive: dose: 50.0 mg/kg/injection, schedule: Q01DX005 (ip), vehicle: Klucel (hydroxypropylcellulose) (HPC) 89 % of control | dose: 100.0 mg/kg/injection, schedule: Q01DX005 (ip), vehicle: Klucel (hydroxypropylcellulose) (HPC) 97 % of control | dose: 200.0 mg/kg/injection, schedule: Q01DX005 (ip), vehicle: Klucel (hydroxypropylcellulose) (HPC) 88 % of control

CC(C)CC(=O)O[C@@H]1OC=C(COC2OC(CO)C(O)C(O)C2O)[C@H]2CC(=O)[C@@H](C)[C@@H]12 (stereo partly drawn)
inactive: dose: 8.0 mg/kg/injection, schedule: Q01DX005 (ip), vehicle: saline 118 % of control | dose: 16.0 mg/kg/injection, schedule: Q01DX005 (ip), vehicle: saline 116 % of control | dose: 32.0 mg/kg/injection, schedule: Q01DX005 (ip), vehicle: saline 107 % of control | dose: 64.0 mg/kg/injection, schedule: Q01DX005 (ip), vehicle: saline 110 % of control

Cc1csc2nc(-c3ccco3)nn12
inactive: dose: 60.0 mg/kg/injection, schedule: Q01DX005 (ip), vehicle: Klucel (hydroxypropylcellulose) (HPC) 107 % of control | dose: 120.0 mg/kg/injection, schedule: Q01DX005 (ip), vehicle: Klucel (hydroxypropylcellulose) (HPC) 107 % of control

O=C(O)CS(=O)(=O)CCS(=O)(=O)CC(=O)O
inactive: [4] 107 % of control | [5] 105 % of control | [6] 88 % of control

CC(C)(C)NCC(O)COc1nsnc1N1CCOCC1 (stereo not drawn)
inactive: dose: 50.0 mg/kg/injection, schedule: Q01DX009 (ip), vehicle: water 103 % of control | dose: 100.0 mg/kg/injection, schedule: Q01DX009 (ip), vehicle: water 108 % of control | dose: 200.0 mg/kg/injection, schedule: Q01DX009 (ip), vehicle: water 111 % of control

CN(C)C=Nc1ccccc1
inactive: [4] 103 % of control | [5] 103 % of control | [6] 108 % of control

CC1(C)N=C(N)N=C(N)N1c1ccc(Cl)cc1
inactive: dose: 12.5 mg/kg/injection, schedule: Q01DX005 (ip), vehicle: saline 103 % of control | dose: 25.0 mg/kg/injection, schedule: Q01DX005 (ip), vehicle: saline 117 % of control | dose: 50.0 mg/kg/injection, schedule: Q01DX005 (ip), vehicle: saline 124 % of control

CC12CC(CS(=O)C1)c1ccccc1N2 (stereo not drawn)
inactive: dose: 100.0 mg/kg/injection, schedule: Q04DX002 (ip), vehicle: saline with Tween-80 97 % of control | dose: 200.0 mg/kg/injection, schedule: Q04DX002 (ip), vehicle: saline with Tween-80 101 % of control | dose: 400.0 mg/kg/injection, schedule: Q04DX002 (ip), vehicle: saline with Tween-80 100 % of control

CC(=O)c1ccc2c(=O)c(C(=O)O)c[nH]c2c1
inactive: dose: 12.5 mg/kg/injection, schedule: Q01DX009 (ip), vehicle: saline with Tween-80 87 % of control | [7] 91 % of control | [4] 108 % of control | [5] 98 % of control | [6] 104 % of control

O=C(Nc1ccc(Br)cc1)c1ccc(Cl)c(Cl)c1
inactive: dose: 100.0 mg/kg/injection, schedule: Q01DX009 (ip), vehicle: Klucel (hydroxypropylcellulose) (HPC) 116 % of control | dose: 200.0 mg/kg/injection, schedule: Q01DX009 (ip), vehicle: Klucel (hydroxypropylcellulose) (HPC) 119 % of control | dose: 400.0 mg/kg/injection, schedule: Q01DX009 (ip), vehicle: Klucel (hydroxypropylcellulose) (HPC) 117 % of control

CC(N)P(=O)(O)O (stereo not drawn)
inactive: dose: 25.0 mg/kg/injection, schedule: Q01DX009 (ip), vehicle: saline 100 % of control | [4] 115 % of control | [5] 104 % of control and 87 % of control | [6] 106 % of control and 86 % of control

CN(C)C1CCCCC1[N+](C)(C)C (stereo not drawn)
inactive: dose: 5.0 mg/kg/injection, schedule: Q01DX009 (ip), vehicle: saline sonified 100 % of control | dose: 10.0 mg/kg/injection, schedule: Q01DX009 (ip), vehicle: saline sonified 95 % of control | dose: 20.0 mg/kg/injection, schedule: Q01DX009 (ip), vehicle: saline sonified 90 % of control

Clc1ccc(C(CCc2ccc(Br)cc2)Cn2ccnc2)c(Cl)c1 (stereo not drawn)
inactive: [7] 88 % of control | [3] 87 % of control

CN1[C@H]2C=CC(=O)[C@]1(Cl)[C@H]1C(=O)N(c3ccccc3)C(=O)[C@@H]21
inactive: dose: 25.0 mg/kg/injection, schedule: Q01DX005 (ip), vehicle: saline with Tween-80 106 % of control | dose: 50.0 mg/kg/injection, schedule: Q01DX005 (ip), vehicle: saline with Tween-80 109 % of control | dose: 100.0 mg/kg/injection, schedule: Q01DX005 (ip), vehicle: saline with Tween-80 105 % of control | dose: 200.0 mg/kg/injection, schedule: Q01DX005 (ip), vehicle: saline with Tween-80 118 % of control

COc1ccccc1C(c1cc2c(cc1O)OCO2)N1CCOCC1 (stereo not drawn)
inactive: [1] 117 % of control | [2] 115 % of control | dose: 240.0 mg/kg/injection, schedule: Q01DX005 (ip), vehicle: saline with Tween-80 122 % of control

FC(F)(F)c1cc(NC(=S)SCc2ccc3c(c2)OCO3)ccc1Cl
inactive: dose: 50.0 mg/kg/injection, schedule: Q01DX009 (ip), vehicle: suspension in saline 100 % of control | dose: 100.0 mg/kg/injection, schedule: Q01DX009 (ip), vehicle: suspension in saline 100 % of control | dose: 200.0 mg/kg/injection, schedule: Q01DX009 (ip), vehicle: suspension in saline 100 % of control
